Data: paper PMC10937419, “Exploring pyrrolidinyl-spirooxindole natural products as promising platforms for the synthesis of novel spirooxindoles as EGFR/CDK2 inhibitors for halting breast cancer cells” (Frontiers in Chemistry, 2024)
Where two headings read alike, the source gives them in different places.

Assays:
MDA-MB-231 cells = experiment: MTT cytotoxicity assay, MDA-MB-231 breast cancer cells; format: cell-based
Method: (§1) All cells were incubated at 37 °C in 5% carbon dioxide atmosphere (NuAire). Cells were plated at a density of 5x10^4 cells in triplicates in a plate of 96 wells. On the second day, cells were treated with the compounds with concentrations of (0.01, 0.1, 1, 10, and 100 µM). Cell viability was assessed using the MTT assay [6].

MCF-7 cells = experiment: MTT cytotoxicity assay, MCF-7 breast cancer cells; format: cell-based; conditions: Homo sapiens
Method: as §1

EGFR kinase = molecular target: T1, EGFR kinase (Homo sapiens, UniProt P00533); experiment: EGFR kinase inhibition assay; format: biochemical; conditions: for % remaining EGFR kinase activity (relative to control): signal relative to control
T1 construct: purchased BPS Bioscience Corporation 40321
Method: (§2) Inhibitory activities of 5g, 5l, and 5n were tested against EGFR and CDK-2.
(§3) Plus, Promega, USA) inhibition assay.

WISH cells = experiment: MTT cytotoxicity (safety) assay, normal WISH cells; format: cell-based; conditions: mean ± SD of three independent trials
Method: The cytotoxicity of the synthesized compounds was tested using the MTT assay on breast cancer cells (MCF-7 and MDA-MB-231).
The methods for the Cytotoxic activity ([Mosmann, 1983]; [Nafie et al., 2020a]); EGFR/CDK-2 enzyme inhibition ([Nafie et al., 2022a]); Flow cytometry using Annexin V/PI staining; Gene expression analysis using RT-PCR ([Nafie et al., 2022b]); are amended in the Supplementary Material S1.
as §1, with “Both breast cancer; MCF-7 and MDA-MB-231 and normal (WISH) cells were purchased from the National Research Institute, Egypt, and maintained in RPMI-1640 medium L-Glutamine (Lonza Verviers SPRL, Belgium, cat#12-604F). All” for “All”

CDK-2 kinase = molecular target: T2, CDK-2 kinase (Homo sapiens, UniProt P24941); experiment: CDK-2 kinase inhibition assay (Kinase-Glo Plus); format: biochemical; conditions: for CDK-2 kinase activity remaining (% of control): signal relative to control
T2 construct: purchased not clearly printed (Promega, USA is printed after 'Kinase-Glo Plus'; #79599 is a BPS Bioscience number to my knowledge) 79599
Method: as §2, §3

[1] = Homo sapiens, MDA-MB-231, MTT assay, mean ± SD of three independent trials, read-out: IC50 ± SD, MDA-MB-231
[2] = MCF7, MTT assay, mean ± SD of three independent trials, read-out: IC50 ± SD, MCF-7
[3] = average of three independent replicates

T1 sequence (P00533 25-1210): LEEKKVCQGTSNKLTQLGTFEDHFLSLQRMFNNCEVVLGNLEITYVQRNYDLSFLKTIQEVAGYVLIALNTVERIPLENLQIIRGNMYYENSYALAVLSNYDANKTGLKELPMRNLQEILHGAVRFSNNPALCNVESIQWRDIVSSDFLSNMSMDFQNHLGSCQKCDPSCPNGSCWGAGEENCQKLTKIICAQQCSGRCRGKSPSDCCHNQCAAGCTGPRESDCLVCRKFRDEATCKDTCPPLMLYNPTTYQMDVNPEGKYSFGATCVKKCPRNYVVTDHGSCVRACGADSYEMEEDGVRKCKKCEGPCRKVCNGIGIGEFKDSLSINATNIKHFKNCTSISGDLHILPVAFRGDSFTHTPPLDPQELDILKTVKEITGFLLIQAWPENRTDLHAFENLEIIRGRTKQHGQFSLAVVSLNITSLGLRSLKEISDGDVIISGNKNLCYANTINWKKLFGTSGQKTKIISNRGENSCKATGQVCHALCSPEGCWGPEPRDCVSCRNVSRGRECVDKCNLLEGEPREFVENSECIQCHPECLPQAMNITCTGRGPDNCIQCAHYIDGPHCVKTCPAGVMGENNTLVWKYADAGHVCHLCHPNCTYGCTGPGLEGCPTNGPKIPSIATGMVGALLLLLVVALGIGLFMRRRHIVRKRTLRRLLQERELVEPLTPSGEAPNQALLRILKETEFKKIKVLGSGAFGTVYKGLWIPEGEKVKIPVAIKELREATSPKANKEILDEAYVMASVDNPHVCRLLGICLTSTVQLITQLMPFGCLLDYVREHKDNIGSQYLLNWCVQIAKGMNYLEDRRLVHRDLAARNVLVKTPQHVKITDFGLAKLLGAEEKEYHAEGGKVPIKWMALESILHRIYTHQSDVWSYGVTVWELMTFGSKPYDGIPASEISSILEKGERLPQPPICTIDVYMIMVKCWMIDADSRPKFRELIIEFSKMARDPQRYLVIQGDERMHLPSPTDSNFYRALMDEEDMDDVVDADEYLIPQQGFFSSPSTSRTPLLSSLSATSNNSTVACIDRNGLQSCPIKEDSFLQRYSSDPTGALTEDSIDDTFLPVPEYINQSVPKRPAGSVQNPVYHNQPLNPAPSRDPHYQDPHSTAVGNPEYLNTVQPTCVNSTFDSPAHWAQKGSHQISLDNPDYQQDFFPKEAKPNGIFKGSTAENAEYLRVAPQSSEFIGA

Q: What does the source list for `COC(=O)CNC(=O)CN1C(=O)S[C@@]2(C1=O)[C@@H](c1ccc(Cl)cc1)[C@H]1CSCN1[C@@]21C(=O)Nc2ccc(Cl)cc21` [Compound 5a, Methyl (2-((3S,6′S,7′S,7a′S)-5-chloro-7'-(4-chlorophenyl)-2,2″,4″-trioxo-7′,7a′-dihydro-1′H,3′H-dispiro [indoline-3,5′-pyrrolo [1,2-c]thiazole-6′,5″-thiazolidin]-3″-yl)acetyl)glycinate]?
A: IC50 (MDA-MB-231 cells; [1]): 29.5 ± 1.3 µM; IC50 (MCF-7 cells; [2]): 5.87 ± 0.5 µM

Q: `COC(=O)CNC(=O)CN1C(=O)S[C@@]2(C1=O)[C@@H](c1ccc(Cl)cc1)[C@H]1CSCN1[C@@]21C(=O)Nc2cc(Cl)ccc21` [Compound 5b, Methyl (2-((3S,6′S,7′S,7a′S)-6-chloro-7'-(4-chlorophenyl)-2,2″,4″-trioxo-7′,7a′-dihydro-1′H,3′H-dispiro [indoline-3,5′-pyrrolo [1,2-c]thiazole-6′,5″-thiazolidin]-3″-yl)acetyl)glycinate] was tested. Which IC50 (MDA-MB-231 cells; [1]) did it give?
A: 32.5 ± 0.42 µM

Q: And the IC50 (MCF-7 cells; [2])?
A: 7.8 ± 0.32 µM

Q: Which results are given for `O=C(O)CN1C(=O)S[C@@]2(C1=O)[C@@H](c1ccc(Cl)cc1)[C@H]1CSCN1[C@@]21C(=O)Nc2cc(Cl)ccc21` [Compound 5c, 2-((3S,6′S,7′S,7a′S)-6-chloro-7'-(4-chlorophenyl)-2,2″,4″-trioxo-7′,7a′-dihydro-1′H,3′H-dispiro [indoline-3,5′-pyrrolo [1,2-c]thiazole-6′,5″-thiazolidin]-3″-yl)acetic acid]?
A: IC50 (MDA-MB-231 cells; [1]): 24.2 ± 1.1 µM; IC50 (MCF-7 cells; [2]): 15.8 ± 0.4 µM

Q: What does the source list for `O=C(O)CN1C(=O)S[C@@]2(C1=O)[C@@H](c1ccc(Cl)cc1)[C@H]1CSCN1[C@@]21C(=O)Nc2ccc(F)cc21` [Compound 5d, 2-((3S,6′S,7′S,7a′S)-7'-(4-Chlorophenyl)-5-fluoro-2,2″,4″-trioxo-7′,7a′-dihydro-1′H,3′H-dispiro [indoline-3,5′-pyrrolo [1,2-c]thiazole-6′,5″-thiazolidin]-3″-yl)acetic acid]?
A: IC50 (MDA-MB-231 cells; [1]): 9.8 ± 0.35 µM; IC50 (MCF-7 cells; [2]): 19.4 ± 0.4 µM

Q: Which results are given for `Cc1ccc2c(c1)[C@@]1(C(=O)N2)N2CSC[C@@H]2[C@H](c2ccc(Cl)cc2)[C@]12SC(=O)N(CC(=O)O)C2=O` [Compound 5e, 2-((3S,6′S,7′S,7a′S)-7'-(4-Chlorophenyl)-5-methyl-2,2″,4″-trioxo-7′,7a′-dihydro-1′H,3′H-dispiro [indoline-3,5′-pyrrolo [1,2-c]thiazole-6′,5″-thiazolidin]-3″-yl)acetic acid]?
A: IC50 (MDA-MB-231 cells; [1]): 5.4 ± 0.6 µM; IC50 (MCF-7 cells; [2]): 9.8 ± 0.7 µM

Q: `O=C(O)CN1C(=O)S[C@@]2(C1=O)[C@@H](c1ccc(Cl)cc1)[C@H]1CSCN1[C@@]21C(=O)Nc2ccc([N+](=O)[O-])cc21` [Compound 5f, 2-((3S,6′S,7′S,7a′S)-7'-(4-Chlorophenyl)-5-nitro-2,2″,4″-trioxo-7′,7a′-dihydro-1′H,3′H-dispiro [indoline-3,5′-pyrrolo [1,2-c]thiazole-6′,5″-thiazolidin]-3″-yl)acetic acid] was tested. Which IC50 (MDA-MB-231 cells; [1]) did it give?
A: 35.5 ± 1.1 µM

Q: What about the IC50 (MCF-7 cells; [2]) of the same compound?
A: 18.5 ± 0.6 µM

Q: For `O=C(CN1C(=O)S[C@@]2(C1=O)[C@@H](c1ccc(Cl)cc1)[C@H]1CSCN1[C@@]21C(=O)Nc2ccc([N+](=O)[O-])cc21)NCCN1CCOCC1` [Compound 5i], which IC50 (MDA-MB-231 cells; [1]) is on record?
A: 35.3 ± 1.2 µM

Q: And the IC50 (MCF-7 cells; [2])?
A: 28.7 ± 0.8 µM

Q: `O=C(CN1C(=O)S[C@@]2(C1=O)[C@@H](c1ccc(Cl)cc1)[C@H]1CSCN1[C@@]21C(=O)Nc2ccc(F)cc21)NCCN1CCOCC1` [Compound 5j] was tested. Which IC50 (MDA-MB-231 cells; [1]) did it give?
A: 21.4 ± 0.8 µM

Q: And the IC50 (MCF-7 cells; [2])?
A: 23.4 ± 1.2 µM

Q: For `O=C(CN1C(=O)S[C@@]2(C1=O)[C@@H](c1ccc(Cl)cc1)[C@H]1CSCN1[C@@]21C(=O)Nc2ccc(Cl)cc21)NCCN1CCOCC1` [Compound 5k], which IC50 (MDA-MB-231 cells; [1]) is on record?
A: 19.5 ± 0.7 µM

Q: What about the IC50 (MCF-7 cells; [2]) of the same compound?
A: 21.4 ± 0.9 µM

Q: What does the source list for `COC(=O)[C@@H](NC(=O)CN1C(=O)S[C@@]2(C1=O)[C@@H](c1ccc(Br)cc1)[C@H]1CSCN1[C@@]21C(=O)Nc2cc(Cl)ccc21)C(C)C` [Compound 5l, Methyl (2-((3S,6′S,7′S,7a′S)-7'-(4-bromophenyl)-6-chloro-2,2″,4″-trioxo-7′,7a′-dihydro-1′H,3′H-dispiro [indoline-3,5′-pyrrolo [1,2-c]thiazole-6′,5″-thiazolidin]-3″-yl)acetyl)valinate]?
A: IC50 (MDA-MB-231 cells; [1]): 8.45 µM; IC50 (MDA-MB-231 cells; MTT assay, mean ± SD of three independent trials, listed as C00012, read-out: IC50 ± SD, MDA-MB-231): 8.43 ± 0.6 µM; % remaining EGFR kinase activity (relative to control) (EGFR kinase; 0.01 µM, ΔT=30 min): 69.72%; inhibition at 0.01 µM (EGFR kinase; 0.01 µM, ΔT=30 min): 30.3%; % remaining EGFR kinase activity (relative to control) (EGFR kinase; 0.1 µM, ΔT=30 min): 60.14%; inhibition at 0.1 µM (EGFR kinase; 0.1 µM, ΔT=30 min): 39.9%; % remaining EGFR kinase activity (relative to control) (EGFR kinase; 1 µM, ΔT=30 min): 48.86%; inhibition at 1 µM (EGFR kinase; 1 µM, ΔT=30 min): 51.1%; % remaining EGFR kinase activity (relative to control) (EGFR kinase; 2.5 µM, ΔT=30 min): 41.25%; inhibition at 2.5 µM (EGFR kinase; 2.5 µM, ΔT=30 min): 58.7%; % remaining EGFR kinase activity (relative to control) (EGFR kinase; 5 µM, ΔT=30 min): 19.88%; inhibition at 5 µM (EGFR kinase; 5 µM, ΔT=30 min): 80.1%; % remaining EGFR kinase activity (relative to control) (EGFR kinase; 10 µM, ΔT=30 min): 11.75%; inhibition at 10 µM (EGFR kinase; 10 µM, ΔT=30 min): 89.9%; IC50 (EGFR kinase; [3]): 67 ± 1 nM; % Of EGFR inhibition (EGFR kinase; concentration not given in Table 2, matches 10 µM in the 4th table): 89.8 ± 2.8%; IC50 (WISH cells): 43.5 ± 2 µM; IC50 (MCF-7 cells; [2]): 3.4 ± 0.5 µM; CDK-2 kinase activity remaining (% of control) (CDK-2 kinase; 0.01 µM, ΔT=30 min): 90.99%; inhibition at 0.01 µM (CDK-2 kinase; 0.01 µM, ΔT=30 min, read-out: % of inhibition, CDK2): 9.01%; CDK-2 kinase activity remaining (% of control) (CDK-2 kinase; 0.1 µM, ΔT=30 min): 76%; inhibition at 0.1 µM (CDK-2 kinase; 0.1 µM, ΔT=30 min, read-out: % of inhibition, CDK2): 24%; CDK-2 kinase activity remaining (% of control) (CDK-2 kinase; 1 µM, ΔT=30 min): 60.44%; inhibition at 1 µM (CDK-2 kinase; 1 µM, ΔT=30 min, read-out: % of inhibition, CDK2): 39.6%; CDK-2 kinase activity remaining (% of control) (CDK-2 kinase; 2.5 µM, ΔT=30 min): 56.06%; inhibition at 2.5 µM (CDK-2 kinase; 2.5 µM, ΔT=30 min, read-out: % of inhibition, CDK2): 43.9%; CDK-2 kinase activity remaining (% of control) (CDK-2 kinase; 5 µM, ΔT=30 min): 36.07%; inhibition at 5 µM (CDK-2 kinase; 5 µM, ΔT=30 min, read-out: % of inhibition, CDK2): 63.9%; CDK-2 kinase activity remaining (% of control) (CDK-2 kinase; 10 µM, ΔT=30 min): 29.31%; inhibition at 10 µM (CDK-2 kinase; 10 µM, ΔT=30 min, read-out: % of inhibition, CDK2): 89.4%; IC50 (CDK-2 kinase; [3]): 345 nM

Q: For `COC(=O)[C@@H](NC(=O)CN1C(=O)S[C@@]2(C1=O)[C@@H](c1ccc(Br)cc1)[C@H]1CSCN1[C@@]21C(=O)Nc2ccc(F)cc21)C(C)C` [Compound 5m, Methyl (2-((3S,6′S,7′S,7a′S)-7'-(4-bromophenyl)-5-fluoro-2,2″,4″-trioxo-7′,7a′-dihydro-1′H,3′H-dispiro [indoline-3,5′-pyrrolo [1,2-c]thiazole-6′,5″-thiazolidin]-3″-yl)acetyl)valinate], which IC50 (MDA-MB-231 cells; [1]) is on record?
A: 6.3 ± 0.3 µM

Q: What about the IC50 (MCF-7 cells; [2]) of the same compound?
A: 4.5 ± 0.4 µM

Q: With `COC(=O)CCCNC(=O)CN1C(=O)S[C@@]2(C1=O)[C@@H](c1ccc(Br)cc1)[C@H]1CSCN1[C@@]21C(=O)Nc2cc(Cl)ccc21` [Compound 5o, Methyl 4-(2-((3S,6′S,7′S,7a′S)-7'-(4-bromophenyl)-6-chloro-2,2″,4″-trioxo-7′,7a′-dihydro-1′H,3′H-dispiro [indoline-3,5′-pyrrolo [1,2-c]thiazole-6′,5″-thiazolidin]-3″-yl)acetamido)butanoate] as the compound, how does the IC50 (MDA-MB-231 cells; [1]) read?
A: 4.32 ± 0.5 µM

Q: And the IC50 (MCF-7 cells; [2])?
A: 4.12 ± 0.4 µM

Q: For `C#Cc1cccc(Nc2ncnc3cc(OCCOC)c(OCCOC)cc23)c1` [Erlotinib, reference compound], which IC50 (MDA-MB-231 cells; Homo sapiens, MDA-MB-231, read-out: IC50 ± SD, MDA-MB-231) is on record?
A: 3.25 ± 0.5 µM

Q: And the IC50 (MCF-7 cells; MCF7, read-out: IC50 ± SD, MCF-7)?
A: 2.14 ± 0.3 µM
